Assay results from patent publication US20240164380A1, “ANTIFUNGAL COMPOSITIONS AND METHODS FOR THEIR USE” (Texas Crop Science, Inc., priority 2022, published 2024).

How the values were obtained:
[1] = test system: Zymoseptoria tritici (Septoria tritici); assay: Greenhouse crop test of Compound 1 with metconazole on winter wheat; assay type: in vivo; settings: winter wheat infected with Z. tritici, preventative spray 1 d before inoculation, FIG. 9
Method: A 2019 field isolate of Zymoseptoria tritici (Septoria tritici) was grown on potato dextrose agar (PDA), amended with penicillin and streptomycin, to eliminate possible bacterial contamination, for 6 d at 20° C.
Spore suspensions were made by flooding the plates with sterile distilled water and scraping gently. The spore suspensions were adjusted to 10^6 conidia mL^−1, by haemocytometer counts and appropriate dilution, before final re-suspension in potato dextrose broth, amended with 1.5 g L^−1 gelatin and 0.5 g L^−1 sodium oleate.
Septoria-susceptible winter wheat cv Trinity was planted in Levington M3 compost. Seeds (12-15 per pot) were planted per 9 cm pot and grown to growth stage 12. Plants were accommodated in a glasshouse with day heating to 20° C., venting at 22° C., and night heating to maintain 15° C. Plants were inoculated with Z. tritici by spraying spore suspensions at 10^6 spores ml^−1 to just before run-off. Three replicate pots were used per treatment. The plants were placed in sealed, transparent propagators for 72 hours, to maintain high relative humidity and to ensure free water remained on leaves. […] Preventative fungicide sprays were made 1 d before inoculation. Treatments were randomised within the glasshouse. All fungicides were applied at the equivalent rate of 200 L water per hectare, using a calibrated pressurised hand-held sprayer. […]

apyrase = assay: In vitro apyrase assay (screen for apyrase inhibitors); assay type: biochemical; settings: inhibitor conc at 1 mM, 1 hr at room temperature, absorbance @630 nm
Method: Method 1: In Vitro Apyrase Assay:
The apyrase inhibitory activity was assessed using an in vitro assay. The method of Windsor, Bio Techniques 33:1024-1030 (November 2002) was used as follows:
96 well plates were used for the assay: (Greiner bio-one: REF-655901- 96 well, PS, F-bottom, Clear, Non-binding)
Reaction Buffer: 60 mM Hepes; 3 mM MgCl2, 3 mM CaCl2 and 3 mM ATP (pH 6.5)
Development Buffer A: 2% aqueous ammonium molybdate
Development Buffer B: 11% ascorbic acid in 37.5% TCA in water
Stop buffer C: 2% trisodium citrate in 2% acetic acid solution in water • Add 100 μl of reaction buffer to each well. • Add 10 μl of DMSO (control) or inhibitor/compound or compounds such as N1915 or orthovanadate to each well. (use inhibitor conc at 1 mM; orthovanadate at 2 mM and N1915 at 1 mM) • Add 10 μl of apyrase (concentration based on optimization—Dilute 1 U/μl enzyme to different concentrations such as 0.1 U, 0.05 U, 0.0025, 0.001 U, 0.0005 U—to find a good range) • Incubate plate at room temperature for 1 hr • Mix development buffer A and B in the ratio of 1:1.5 (just before use). • Add 50 ul of A:B mix in each well (incubate for 2 mins) • Add 50 ul of C in each well • Measure/Read Absorbance of plate @630 nm Compound 1 inhibited inhibited apyrase in this assay at about 60%. : […]

plant pathogenic fungi = assay: Crop trials of fungicides with and without the enhancer compound (FIGS. 1-8); assay type: in vivo; settings: soy, wheat and grape crops
Excerpt: FIG. 1 illustrates Asian soybean rust severity in untreated crop (UTC) versus soy treated with azoxystrobin, chlorothalonil, tebuconazole or azoxystrobin and tebuconazole with and without the present enhancer compound (TX 15) at 1, 7, 9, 14 and 16 days after application (DAA).
FIG. 2 illustrates frogeye leaf spot intensity of infection in soy in untreated crop (UTC) versus soy treated with azoxystrobin, chlorothalonil, tebuconazole or azoxystrobin and tebuconazole with and without the present enhancer compound (TX15) at 4, 11 and 18 (two trials) days after application (DAA).
FIG. 3 illustrates yellow rust foliar infection percentage of wheat in untreated crop (UTC) versus wheat with preventive application of AMISTAR® (azoxystrobin), folpet, PROLINE® (prothioconazole), REVYSTAR® (fluxapyroxad and mefentrifluconazole), A20944 (prothioconazole and pydiflumetofen), ELATUS® ERA (prothioconazole and benzovindiflupyr), A21857 (ADEPIDYN®; pydiflumetofen), INATREQ® (fenpicoxamid) with and without the present enhancer compound (TX 15). […]
FIG. 7 illustrates the severity of downy mildew attack on grape crops assessed as to bunches and leaves in untreated crop (UTC) versus crop treated with cyazofamid or cyazofamid and the present enhancer compound (TX 15). […]

| SMILES | effect of combining Compound 1 (TX15) with the fungicide [1] | inhibited apyrase (apyrase) | fungal growth in combination with exemplary fungicides (plant pathogenic fungi) |
| --- | --- | --- | --- |
| CC1(C)CCC(Cc2ccc(Cl)cc2)C1(O)Cn1cncn1 (stereo not drawn) [metconazole] | synergistic effect |  |  |
| C/C(=N\NC(=O)c1cccc(C)c1)c1ccc2ccccc2c1 [Compound 1, (E)-3-methyl-N′-(1-(naphthalen-2-yl)ethylidene)benzohydrazide] |  | about 60% | dramatically reduces fungal growth |
